Reference: patent US9969715B2, “Compounds useful for treating cancer” (ABIVAX, priority 2012, dated 2018)
Where two headings read alike, the source gives them in different places.

What was measured:
[1] = system: MDA-MB231-luc-D3H2LN cells; test: Toxicity assay under normal cell culture conditions (MTS), MDA cells; format: cell-based, human; conditions: for MDA tox: 50% tox. at (μM) av: MDA-MB231-luc-D3H2LN cells, MEM+10% FBS, 72 h incubation, MTS; for toxicity on MDA-MB231 compared to comparative compound (in words): 1 vs C88 (112), 3 vs 583, 4 vs 585
How it was run: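 Under normal culture conditions (MEM with 10% FBS), MDA-MB231-luc-D3H2LN cells (2000/well) were exposed to compound concentration series for 72 h. Viability measured by MTS assay. Value is the concentration giving 50% toxicity.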

human PBMC = test: Toxicity assay under normal cell culture conditions (MTS), PBMC; format: cell-based; conditions: for PBMC tox.: 50% tox. at (μM) av: human PBMC, RPMI+10% FBS+IL-2, 72 h incubation, MTS; for toxicity on PBMC compared to comparative compound (in words): 1 vs C88 (112), 3 vs 583, 4 vs 585
How it was run: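 Human PBMC (75000/well) in RPMI + 10% FBS + IL-2 were exposed to compounds for 72 h, with viability read by MTS. Concentration-response curves gave the concentration producing 50% toxicity.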

[2] = system: MDA-MB231-luc-D3H2LN cells; test: Invasion of MDA-MB231-D3H2LN cells into collagen (procedure 1, 24 h drug incubation); format: cell-based, human; conditions: for anti-invasive activity (in words): first set of experiments, procedure 1; for Invasion av.: number of cells per valid field at 50 μm, fold inhibitory effect compared to 10 μM Y-27632: procedure 1, first set of experiments
Protocol: It is to be noted that both Procedures 1 and 2 are invasion assays to test effect of drug compounds on invasion. They are both fully identical except for the time of incubation with the drug.
Here, invasion (into collagen) is the number of cells per valid field at 50 μm fold inhibitory effect compared to 10 μM Y-27632.
Standard Operating Procedure 1:
Said procedure is as described in example 15 except with respect to (i) the last step during day 1 “preparation of the invasion assay” and “treatment with the drugs” and days 2 and 3 which are detailed hereinafter and (ii) the fact that no concentration nor toxicity is determined at the end.
add each 33 μl/well of the 4× concentrated drug solutions in MEM+0.1% FBS to the corresponding wells in all three plates, according to the plate maps above
incubate 24 h at 37° C./5% CO2
The analysis as performed in day 5 in example 15 is performed exactly under the same conditions in day 3 in the framework of the present procedure 1.

hERG channel = target: T1, hERG channel (Homo sapiens, UniProt Q12809); test: hERG channel inhibition (electrophysiology, hERG-transfected HEK293 cells); format: cell-based; conditions: for % hERG inhibition in transfected HEK (n = 3) at 1 μM av: 1 μM compound; for % hERG inhibition in transfected HEK (n = 3) at 10 μM av: 10 μM compound; for hERG inhibition compared to comparative compound (in words): 1 vs C88 (112), 3 vs 583, 4 vs 585
T1 construct: host or cells: HEK293
Protocol: Performed by Porsolt & Partners (Z. A. de Glatigné, 53940 Le Genest-Saint-Isle, France). Briefly, each 3 hERG-transfected HEK293 cells were superfused with the compounds at 1 and 10 μM, and the hERG channel current was measured by electrophysiology, as described by Crumb et al., J. Pharmacol. Exp. Ther. 2000.

[3] = system: MDA-MB231-luc-D3H2LN cells; test: Invasion of MDA-MB231-D3H2LN cells into collagen (example 15 = procedure 2, 48 h drug pre-incubation); format: cell-based; conditions: for anti-invasive activity (in words): second set of experiments, procedure 2 (example 15); for invasiveness inhibition compared to comparative compound (in words): 1 vs C88 (112), 4 vs 585
How it was run: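 Cells embedded at the bottom of collagen gels were pre-treated 48 h with compound in 0.025% FBS, then stimulated with 5% FBS for 24 h at 37° C. Nuclei were imaged at 0, 25 and 50 µm to give mean invasion distance, with MTS viability also measured. Value is the concentration giving 50% of the effect of 10 µM Y-27632.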

[4] = system: MDA-MB231-luc-D3H2LN cells; test: Viability (MTS) assay on the cells in collagen under invasion assay conditions; format: cell-based, human; conditions: loss of viability at the concentration giving 0.5 × effect of 10 μM Y-27632, invasion assay conditions
How it was run: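 Run on cells embedded in collagen after a further 24 h, on serum-starved cells and in parallel on cells in 10% FBS. MTS reagent 3–4 h at 37 °C, absorbance at 490 nm; background-corrected signals expressed as % of untreated control.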

[5] = Homo sapiens, procedure 2, second set of experiments, read-out: Invasion Av.: concentration of the compound necessary to reach 50% of the inhibition effect compared to 10 μM Y-27632
[6] = concentration giving 50% of the anti-invasive effect of 10 μM Y-27632, 48 h pre-incubation, 24 h with 5% FBS, read-out: MDA: Inhib. of invasion: 0.5 × eff. of 10 μM Y-27632 at (μM) av

T1 sequence (Q12809 whole entry): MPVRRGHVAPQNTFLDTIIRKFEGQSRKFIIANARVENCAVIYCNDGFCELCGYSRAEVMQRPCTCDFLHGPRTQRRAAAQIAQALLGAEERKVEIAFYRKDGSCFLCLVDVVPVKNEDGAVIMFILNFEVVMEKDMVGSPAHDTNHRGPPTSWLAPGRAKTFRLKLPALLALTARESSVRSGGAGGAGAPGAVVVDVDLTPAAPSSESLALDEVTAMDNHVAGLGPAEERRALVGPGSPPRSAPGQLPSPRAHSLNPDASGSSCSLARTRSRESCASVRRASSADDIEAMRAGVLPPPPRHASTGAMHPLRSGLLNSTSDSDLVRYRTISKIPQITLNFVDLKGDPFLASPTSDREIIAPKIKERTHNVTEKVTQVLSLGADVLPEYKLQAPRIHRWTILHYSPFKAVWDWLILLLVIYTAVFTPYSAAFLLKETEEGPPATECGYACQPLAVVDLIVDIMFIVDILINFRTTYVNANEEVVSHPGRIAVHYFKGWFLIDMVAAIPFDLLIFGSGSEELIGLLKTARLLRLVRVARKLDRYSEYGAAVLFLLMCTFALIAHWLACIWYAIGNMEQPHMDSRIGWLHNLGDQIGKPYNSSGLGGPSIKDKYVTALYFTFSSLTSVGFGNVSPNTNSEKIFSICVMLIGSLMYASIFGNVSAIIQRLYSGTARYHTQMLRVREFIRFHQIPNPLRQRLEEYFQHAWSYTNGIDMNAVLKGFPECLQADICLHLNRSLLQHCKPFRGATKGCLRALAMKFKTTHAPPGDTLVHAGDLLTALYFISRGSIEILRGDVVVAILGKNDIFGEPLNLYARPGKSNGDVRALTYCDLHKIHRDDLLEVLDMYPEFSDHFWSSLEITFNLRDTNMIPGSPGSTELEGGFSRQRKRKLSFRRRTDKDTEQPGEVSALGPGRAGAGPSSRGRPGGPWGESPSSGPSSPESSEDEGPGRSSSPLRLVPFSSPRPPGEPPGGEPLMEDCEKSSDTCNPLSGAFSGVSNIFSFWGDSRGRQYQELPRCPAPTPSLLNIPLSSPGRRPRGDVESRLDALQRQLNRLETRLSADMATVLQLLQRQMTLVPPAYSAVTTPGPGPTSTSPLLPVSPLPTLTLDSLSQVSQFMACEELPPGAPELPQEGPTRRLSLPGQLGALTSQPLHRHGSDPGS

IC50 [3, 5] | IC50 [3, 6] | Structure (SMILES) | MDA tox: 50% tox. at (μM) av [1] | PBMC tox.: 50% tox. at (μM) av (human PBMC) | anti-invasive activity (in words) [2] | Invasion av.: number of cells per valid field at 50 μm, fold inhibitory effect compared to 10 μM Y-27632 [2] | % hERG inhibition in transfected HEK (n = 3) at 1 μM av (hERG channel) | % hERG inhibition in transfected HEK (n = 3) at 10 μM av (hERG channel) | anti-invasive activity (in words) [3] | (+ MDA tox. under these cond.) % tox [4] | toxicity on MDA-MB231 compared to comparative compound (in words) [1] | toxicity on PBMC compared to comparative compound (in words) (human PBMC) | hERG inhibition compared to comparative compound (in words) (hERG channel) | invasiveness inhibition compared to comparative compound (in words) [3]
0.39 µM | 0.39 µM | CCN(CC)CCCNC(=O)c1cccc(Nc2cccc(/C=C/c3ccncc3)c2)c1 [Compound C88, reference compound] | 10 µM | 10 µM | anti-invasive activity was detected | 1 | 55% | 92% | anti-invasive activity is detected | <10% |  |  |  | 
 | 1.5 µM | CCN(CC)CCCNC(=O)c1ccnc(Nc2cccc(C(=O)Nc3ccncn3)c2)c1 [Compound 41, N-(3-(diethylamino)propyl)-2-((3-(pyrimidin-4-ylcarbamoyl)phenyl)amino)isonicotinamide] | ≥80 µM | >100 µM |  |  | 8% | 53% |  | <10% |  |  |  | 
 | 0.55 µM | CCN(CC)CCCNC(=O)c1cccc(Nc2cccc(C(=O)Nc3ccncc3)c2)n1 [Compound 35, N-(3-(diethylamino)propyl)-6-((3-(pyridin-4-ylcarbamoyl)phenyl)amino)picolinamide] | 59 µM | 128 µM |  |  | 4% | 30% |  | <10% |  |  |  | 
 | 0.25 µM | O=C(NCCCN1CCOCC1)c1cccc(Nc2cccc(/C=C/c3ccncc3)c2)c1 [Compound 583, reference compound] | 21 µM | 18 µM |  |  | 36% | 74% |  | <10% |  |  |  | 
 | 0.28 µM | O=C(Nc1ccncc1)c1cccc(Nc2cccc(S(=O)(=O)NCCCN3CCCCC3)c2)c1 [Compound 9, 3-((3-(N-(3-(piperidin-1-yl)propyl)sulfamoyl)phenyl)amino)-N-(pyridin-4-yl)benzamide] | 44 µM | 36 µM |  |  | 5% | 50% |  | <10% |  |  |  | 
 | 0.46 µM | O=C(Nc1ccncc1)c1cccc(Nc2cccc(S(=O)(=O)NCCCN3CCOCC3)c2)c1 [Compound 12, 3-((3-(N-(3-morpholinopropyl)sulfamoyl)phenyl)amino)-N-(pyridin-4-yl)benzamide] | 60 µM | 54 µM |  |  | 11% | 55% |  | <10% |  |  |  | 

Further lines, the compound ahead of its results:

Structure (SMILES) | IC50 [3, 5] | IC50 [3, 6] | MDA tox: 50% tox. at (μM) av [1] | PBMC tox.: 50% tox. at (μM) av (human PBMC) | anti-invasive activity (in words) [2] | Invasion av.: number of cells per valid field at 50 μm, fold inhibitory effect compared to 10 μM Y-27632 [2] | % hERG inhibition in transfected HEK (n = 3) at 1 μM av (hERG channel) | % hERG inhibition in transfected HEK (n = 3) at 10 μM av (hERG channel) | anti-invasive activity (in words) [3] | (+ MDA tox. under these cond.) % tox [4] | toxicity on MDA-MB231 compared to comparative compound (in words) [1] | toxicity on PBMC compared to comparative compound (in words) (human PBMC) | hERG inhibition compared to comparative compound (in words) (hERG channel) | invasiveness inhibition compared to comparative compound (in words) [3]
O=C(NCCCN1CCCC1)c1cccc(Nc2cccc(C(=O)Nc3ccncc3)c2)c1 [Compound 4, N-(pyridin-4-yl)-3-((3-((3-(pyrrolidin-1-yl)propyl)carbamoyl)phenyl)amino)benzamide] |  | 0.21 µM | 54 µM | 42 µM |  |  | 6% | 59% |  | <10% | less toxic | less toxic | less hERG inhibition | more potent
CCN(CC)CCCNC(=O)c1cccc(Nc2cccc(C(=O)Nc3ccncc3)c2)c1 [Compound 1, N-(3-(diethylamino)propyl)-3-((3-(pyridin-4-ylcarbamoyl)phenyl)amino)benzamide] | 0.13 µM | 0.13 µM | 46 µM | 51 µM |  |  | 13% | 47% | anti-invasive activity is detected | <10% | less toxic | less toxic | less hERG inhibition | more potent
CCN(CC)CCCNS(=O)(=O)c1cccc(Nc2cccc(C(=O)Nc3ccncc3)c2)c1 [Compound 5, 3-((3-(N-(3-(diethylamino)propyl)sulfamoyl)phenyl)amino)-N-(pyridin-4-yl)benzamide] |  | 1.31 µM | 68 µM | 74 µM |  |  | 1% | 29% |  | <10% |  |  |  | 
O=C(NCCCN1CCOCC1)c1cccc(Nc2cccc(C(=O)Nc3ccncc3)c2)c1 [Compound 3, N-(3-morpholinopropyl)-3-((3-(pyridin-4-ylcarbamoyl)phenyl)amino)benzamide] |  | 0.29 µM | 51 µM | 51 µM |  |  | 14% | 54% |  | <10% | less toxic | less toxic | less hERG inhibition | 
CCN(CC)CCCNC(=O)c1cccc(Nc2cccc(NC(=O)c3cccnc3)c2)c1 [FMMB46.1] |  |  |  |  | no effect was observed | 0.02 |  |  |  |  |  |  |  | 
